Test [1] is described as follows: Inhibition of Ebola virus Sudan envelope glycoprotein-mediated cell entry in human HuH7 cells treated with 30 mins pre-treated pseudovirus/compopund mixture and measured after 72 hrs by luciferase reporter assay. (In general: In a reporter assay the amount or activity of a reporter protein is the signal.)
A short description of test [2]: Inhibition of HIV1 envelope glycoprotein-mediated cell-cell fusion between HL2/3 cells stably expressing HIV Gag, Env, Tat, Rev and Nef proteins and human TZM-bl cells stably expressing high CD4 and CCR5 incubated for 6 to 8 hrs by luciferase reporter assay.

Where a SMILES comes first, the peptide text is derived from it. [ ]: non-standard residue; d: D form. The star is where a group is joined. Palmitoyl = CCCCCCCCCCCCCCCC(=O)*; βAla = NCCC(=O)O

A word on the EC50: it is the concentration that produces a half-maximal response. On to `CCCCCCCCCCCCCCCC(=O)NCCCC[C@H](NC(=O)CCNC(=O)[C@H](CCCCN)NC(=O)[C@H](CCCCN)NC(=O)[C@H](CCC(N)=O)NC(=O)[C@@H](NC(=O)[C@H](CCC(=O)O)NC(=O)[C@H](CCC(=O)O)NC(=O)[C@@H](NC(=O)[C@H](CCCCN)NC(=O)[C@H](CCCCN)NC(=O)[C@H](CCC(N)=O)NC(=O)[C@@H](NC(=O)[C@H](CCC(=O)O)NC(=O)[C@H](CCC(=O)O)NC(=O)[C@@H](NC(=O)[C@H](CCCCN)NC(=O)[C@H](CCCCN)NC(=O)[C@H](CCC(N)=O)NC(=O)[C@@H](NC(=O)[C@H](CCC(=O)O)NC(=O)[C@H](CCC(=O)O)NC(=O)[C@@H](NC(=O)[C@H](CCCCN)NC(=O)[C@H](CCCCN)NC(=O)[C@H](CCC(N)=O)NC(=O)[C@@H](NC(=O)[C@H](CCC(=O)O)NC(=O)[C@H](CCC(=O)O)NC(=O)[C@@H](NC(=O)[C@H](CCCCN)NC(=O)[C@H](CCCCN)NC(=O)[C@H](CCC(N)=O)NC(=O)[C@@H](NC(=O)[C@H](CCC(=O)O)NC(=O)[C@H](CCC(=O)O)NC(=O)[C@@H](NC(C)=O)[C@@H](C)CC)[C@@H](C)CC)[C@@H](C)CC)[C@@H](C)CC)[C@@H](C)CC)[C@@H](C)CC)[C@@H](C)CC)[C@@H](C)CC)[C@@H](C)CC)[C@@H](C)CC)C(N)=O` (Ac-IEEIQKKIEEIQKKIEEIQKKIEEIQKKIEEIQKK[βAla]K(Palmitoyl)-NH2), for which the EC50 was determined as 1.02 µM in test [1] and 3.63 µM in test [2].

The record behind these values is BindingDB's records for doi:10.1021/acs.jmedchem.8b00890 (Beijing Institute of Pharmacology and Toxicology, 2018).
